Experiment in all cases: Figure S2a opioid peptide screen on chemokine receptors
Assay type in all cases: cell-based
Common to all, as to parameters: dose or concentration left out as unconfirmed

One test addresses T1, CCR10 (Homo sapiens, UniProt P46092).
T1 construct: expressed in transfected cells
T1 sequence (P46092 1-362): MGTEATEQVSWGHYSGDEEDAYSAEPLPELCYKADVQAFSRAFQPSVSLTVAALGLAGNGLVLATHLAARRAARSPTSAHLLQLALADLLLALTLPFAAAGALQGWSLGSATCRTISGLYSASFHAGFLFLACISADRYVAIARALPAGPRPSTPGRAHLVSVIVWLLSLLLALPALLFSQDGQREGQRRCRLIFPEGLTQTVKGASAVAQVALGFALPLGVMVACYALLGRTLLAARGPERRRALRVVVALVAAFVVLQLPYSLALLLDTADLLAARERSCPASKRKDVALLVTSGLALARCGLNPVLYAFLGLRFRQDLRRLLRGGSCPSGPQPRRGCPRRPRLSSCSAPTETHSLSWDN

In another test the target is T2, CCR2 (Homo sapiens, UniProt P41597).
T2 construct: expressed in transfected cells
T2 sequence (P41597 1-360 isoform P41597-2): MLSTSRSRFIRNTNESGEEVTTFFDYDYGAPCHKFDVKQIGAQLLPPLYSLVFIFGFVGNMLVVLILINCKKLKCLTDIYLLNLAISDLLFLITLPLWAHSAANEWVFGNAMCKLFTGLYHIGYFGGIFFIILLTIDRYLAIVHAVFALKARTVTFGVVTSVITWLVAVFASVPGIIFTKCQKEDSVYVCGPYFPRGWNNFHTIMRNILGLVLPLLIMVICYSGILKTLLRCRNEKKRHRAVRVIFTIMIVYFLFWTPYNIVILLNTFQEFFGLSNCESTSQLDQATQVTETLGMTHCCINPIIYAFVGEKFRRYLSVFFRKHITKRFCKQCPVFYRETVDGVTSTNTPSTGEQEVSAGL

A further test addresses T3, CXCR3B (Homo sapiens, UniProt P49682).
T3 construct: expressed in transfected cells; host or cells: U87 cells
T3 sequence (P49682 1-415 isoform P49682-2): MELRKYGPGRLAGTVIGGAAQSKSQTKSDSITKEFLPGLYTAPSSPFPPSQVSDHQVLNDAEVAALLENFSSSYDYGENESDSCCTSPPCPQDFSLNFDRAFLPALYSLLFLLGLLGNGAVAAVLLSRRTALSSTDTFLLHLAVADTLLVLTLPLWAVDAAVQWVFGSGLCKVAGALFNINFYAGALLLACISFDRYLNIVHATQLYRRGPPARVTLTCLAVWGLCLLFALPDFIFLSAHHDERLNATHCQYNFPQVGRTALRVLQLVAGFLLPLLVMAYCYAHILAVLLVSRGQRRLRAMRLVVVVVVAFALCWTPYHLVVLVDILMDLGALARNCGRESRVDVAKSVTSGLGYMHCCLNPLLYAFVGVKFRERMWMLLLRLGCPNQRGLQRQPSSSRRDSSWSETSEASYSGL

Another test has as its target T4, ACKR2 (Homo sapiens, UniProt O00590).
T4 construct: expressed in transfected cells; host or cells: U87 cells (human glioblastoma)
T4 sequence (O00590 1-384): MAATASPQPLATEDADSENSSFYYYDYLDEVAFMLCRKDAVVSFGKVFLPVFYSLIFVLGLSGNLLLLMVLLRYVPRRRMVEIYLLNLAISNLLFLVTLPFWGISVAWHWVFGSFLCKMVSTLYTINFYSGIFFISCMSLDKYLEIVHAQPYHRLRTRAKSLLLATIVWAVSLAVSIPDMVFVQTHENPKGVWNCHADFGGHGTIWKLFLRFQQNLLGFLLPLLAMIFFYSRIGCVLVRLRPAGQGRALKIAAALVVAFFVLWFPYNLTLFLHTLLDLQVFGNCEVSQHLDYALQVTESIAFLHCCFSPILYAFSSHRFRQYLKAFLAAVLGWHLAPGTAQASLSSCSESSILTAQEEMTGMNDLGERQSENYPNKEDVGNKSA

In a further test the target is T5, CXCR5 (Homo sapiens, UniProt P32302).
T5 construct: expressed in transfected cells
T5 sequence (P32302 1-372): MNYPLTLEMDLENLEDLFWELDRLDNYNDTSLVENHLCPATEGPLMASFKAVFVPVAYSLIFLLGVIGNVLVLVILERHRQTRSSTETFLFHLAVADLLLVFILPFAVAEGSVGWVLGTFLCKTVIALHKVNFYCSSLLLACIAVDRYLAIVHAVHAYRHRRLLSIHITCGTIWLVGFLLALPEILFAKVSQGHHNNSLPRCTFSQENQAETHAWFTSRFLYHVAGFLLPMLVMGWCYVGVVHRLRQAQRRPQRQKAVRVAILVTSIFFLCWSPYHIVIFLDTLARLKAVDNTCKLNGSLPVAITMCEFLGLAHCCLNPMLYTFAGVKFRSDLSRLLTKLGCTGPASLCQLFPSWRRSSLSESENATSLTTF

Another test concerns the target T6, CCR5 (Homo sapiens, UniProt P51681).
T6 construct: expressed in transfected cells

The target of the next test is T7, CXCR2 (Homo sapiens, UniProt P25025).
T7 construct: expressed in transfected cells
T7 sequence (P25025 1-360): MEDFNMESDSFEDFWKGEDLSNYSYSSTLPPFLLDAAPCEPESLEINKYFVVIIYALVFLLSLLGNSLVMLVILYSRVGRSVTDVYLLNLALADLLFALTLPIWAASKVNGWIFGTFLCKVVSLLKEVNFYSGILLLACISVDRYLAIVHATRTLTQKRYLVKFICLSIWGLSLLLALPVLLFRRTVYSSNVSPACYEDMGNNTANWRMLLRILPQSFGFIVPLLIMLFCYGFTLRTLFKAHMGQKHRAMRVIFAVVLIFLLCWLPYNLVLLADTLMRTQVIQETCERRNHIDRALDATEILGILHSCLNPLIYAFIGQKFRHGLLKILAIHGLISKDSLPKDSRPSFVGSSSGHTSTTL

Setting [1] is: replicate 1, read-out: CCR10 activity, ctrl+ = 100.
The mark [2] stands for this setting: replicate 2, read-out: CCR10 activity, ctrl+ = 100.
Setting [3] is: replicate 3, read-out: CCR10 activity, ctrl+ = 100.
[4] abbreviates: replicate 1, read-out: CCR2 activity, ctrl+ = 100.
Where [5] appears, read: replicate 2, read-out: CCR2 activity, ctrl+ = 100.
The mark [6] stands for this setting: replicate 3, read-out: CCR2 activity, ctrl+ = 100.
Setting [7] is: replicate 1, read-out: CXCR3B activity, ctrl+ = 100.
Setting [8] is: replicate 2, read-out: CXCR3B activity, ctrl+ = 100.
Setting [9] is: replicate 3, read-out: CXCR3B activity, ctrl+ = 100.
The mark [10] stands for this setting: replicate 1, read-out: ACKR2 activity, ctrl+ = 100.
The mark [11] stands for this setting: replicate 2, read-out: ACKR2 activity, ctrl+ = 100.
Setting [12] is: replicate 3, read-out: ACKR2 activity, ctrl+ = 100.
Setting [13] is: replicate 1, read-out: CXCR5 activity, ctrl+ = 100.
Where [14] appears, read: replicate 2, read-out: CXCR5 activity, ctrl+ = 100.
Setting [15] is: replicate 3, read-out: CXCR5 activity, ctrl+ = 100.
Setting [16] is: replicate 1, read-out: CCR5 activity, ctrl+ = 100.
Setting [17] is: replicate 2, read-out: CCR5 activity, ctrl+ = 100.
Setting [18] is: replicate 3, read-out: CCR5 activity, ctrl+ = 100.
[19] abbreviates: replicate 1, read-out: CXCR2 activity, ctrl+ = 100.
Setting [20] is: replicate 2, read-out: CXCR2 activity, ctrl+ = 100.
The mark [21] stands for this setting: replicate 3, read-out: CXCR2 activity, ctrl+ = 100.

Where two headings read alike, the source gives them in different places. Starred links: 1 amine or outer side, 2 acyl side, 3 side chain; linkers in the order of their positions; H or OH if unused. Non-standard residues stand in square brackets, D forms with d. Residues, ends and D or L forms follow the SMILES beside them. X1 = N[C@@H](Cc1ccccc1)CN(CC(=O)[*:2])[*:1]

T6 sequence (P51681 whole entry): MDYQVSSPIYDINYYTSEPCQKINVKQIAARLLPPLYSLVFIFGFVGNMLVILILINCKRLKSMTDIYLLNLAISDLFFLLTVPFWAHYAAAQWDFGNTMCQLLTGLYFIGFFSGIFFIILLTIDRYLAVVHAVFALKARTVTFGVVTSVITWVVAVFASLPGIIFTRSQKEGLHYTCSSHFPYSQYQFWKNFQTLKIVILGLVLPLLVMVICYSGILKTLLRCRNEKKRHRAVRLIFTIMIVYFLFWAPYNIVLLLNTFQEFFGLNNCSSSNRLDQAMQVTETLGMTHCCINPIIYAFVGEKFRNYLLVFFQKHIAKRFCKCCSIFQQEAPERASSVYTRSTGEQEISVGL

Regarding `CC[C@H](C)[C@H](NC(=O)[C@H](CCCNC(=N)N)NC(=O)[C@H](CCCNC(=N)N)NC(=O)[C@H](CC(C)C)NC(=O)[C@H](Cc1ccccc1)NC(=O)CNC(=O)CNC(=O)[C@@H](N)Cc1ccc(O)cc1)C(=O)N[C@@H](CCCNC(=N)N)C(=O)N1CCC[C@H]1C(=O)N[C@@H](CCCCN)C(=O)N[C@@H](CC(C)C)C(=O)N[C@@H](CCCCN)C(=O)N[C@@H](Cc1c[nH]c2ccccc12)C(=O)N[C@@H](CC(=O)O)C(=O)N[C@@H](CC(N)=O)C(=O)N[C@@H](CCC(N)=O)C(=O)O` [Dynorphin A], the activation at CCR10 (setting [1]) is 2.9%; on CCR10 (setting [2]), -7.47%; on CCR10 (setting [3]), 4.56%; at CCR2 (setting [4]) it was -0.0585%; on CCR2 (setting [5]), -2.61%; on CCR2 (setting [6]) it was -0.105%. Besides, the activation was -2.77% on CXCR3B (setting [7]); 1.06% on CXCR3B (setting [8]); -1.99% on CXCR3B (setting [9]); 15.1% at ACKR2 (setting [10]); -26% on ACKR2 (setting [11]); 2.73% at ACKR2 (setting [12]). Further, the activation at CXCR5 (setting [13]) was -1.81%; on CXCR5 (setting [14]), -4.52%; at CXCR5 (setting [15]), 9.35%; at CCR5 (setting [16]), 2.19%; on CCR5 (setting [17]) it was -1.33%; on CCR5 (setting [18]) it was 2.35%. The activation is -9.63% at CXCR2 (setting [19]), -9.59% at CXCR2 (setting [20]) and 0.355% on CXCR2 (setting [21]).
With `C[C@H](NC(=O)CNC(=O)[C@@H](NC(=O)[C@H](Cc1ccccc1)NC(=O)CNC(=O)CNC(=O)[C@@H](N)Cc1ccccc1)[C@@H](C)O)C(=O)N[C@@H](CCCNC(=N)N)C(=O)N[C@@H](CCCCN)C(=O)N[C@@H](CO)C(=O)N[C@@H](C)C(=O)N[C@@H](CCCNC(=N)N)C(=O)N[C@@H](CCCCN)C(N)=O` [Nociceptin 1-13], the activation is 2.26% on CCR10 (setting [1]); -5.16% at CCR10 (setting [2]); 3.57% on CCR10 (setting [3]); 0.793% on CCR2 (setting [4]); -0.93% on CCR2 (setting [5]); 1.52% at CCR2 (setting [6]). Further, the activation at CXCR3B (setting [7]) is -2.86%; on CXCR3B (setting [8]) it was 1.14%; at CXCR3B (setting [9]), 7.41%; at ACKR2 (setting [10]), -54.6%; at ACKR2 (setting [11]), -2.02%; on ACKR2 (setting [12]), 10.5%. For the same molecule, the activation at CXCR5 (setting [13]) was -3.96%; on CXCR5 (setting [14]), -2.66%; at CXCR5 (setting [15]), -1.89%; on CCR5 (setting [16]) it was -0.291%; on CCR5 (setting [17]), -0.592%; on CCR5 (setting [18]), 0.907%. Besides, the activation on CXCR2 (setting [19]) was -8.55%; on CXCR2 (setting [20]) it was -9.95%; at CXCR2 (setting [21]), -4.53%.
Regarding `C[C@H](NC(=O)CNC(=O)[C@@H](NC(=O)[C@H](Cc1ccccc1)NC(=O)CNC(=O)CNC[C@@H](N)Cc1ccccc1)[C@@H](C)O)C(=O)N[C@@H](CCCNC(=N)N)C(=O)N[C@@H](CCCCN)C(=O)N[C@@H](CO)C(=O)N[C@@H](C)C(=O)N[C@@H](CCCNC(=N)N)C(=O)N[C@@H](CCCCN)C(N)=O` [FG Nociceptin 1-13] (H-[X1]GFTGARKSARK-NH2), the activation on CCR10 (setting [1]) was -1.11%; at CCR10 (setting [2]), -2.39%; on CCR10 (setting [3]), 7.95%; at CCR2 (setting [4]), -0.148%; on CCR2 (setting [5]), -0.651%; on CCR2 (setting [6]), 0.99%. Also, the activation on CXCR3B (setting [7]) is -0.717%; on CXCR3B (setting [8]), 1.26%; at CXCR3B (setting [9]), 8.05%; on ACKR2 (setting [10]) it was -51.1%; on ACKR2 (setting [11]), 36.5%; on ACKR2 (setting [12]), 2.35%. In addition, the activation at CXCR5 (setting [13]) was -5.41%; on CXCR5 (setting [14]) it was -2.11%; on CXCR5 (setting [15]), -0.496%; on CCR5 (setting [16]), -0.325%; on CCR5 (setting [17]), 0.224%; at CCR5 (setting [18]), 0.582%. Besides, the figures for the activation on CXCR2 (setting [19]), on CXCR2 (setting [20]) and on CXCR2 (setting [21]) were -5.21%, -6.16% and -0.318%, respectively.

These data come from paper PMC7305236, “The atypical chemokine receptor ACKR3/CXCR7 is a broad-spectrum scavenger for opioid peptides” (Nature Communications, 2020).
